Results on five molecules are retold here after US20260240865A1, “HARNESSING IKZF:BETA-CATENIN COMPLEXES IN THE TREATMENT OF LYMPHOCYTE ASSOCIATED DISEASES OR CONDITIONS” (Yale University, priority 2022, published 2026).

Data set [1] deals with β-catenin and MYC protein levels in B-ALL cells. The data set can be described thus: Western blot of β-catenin and MYC after GSK3β inhibitor treatment. Format: cell-based, human. The note with it: B-ALL (PDX2) cells, 16 hours; FIGS. 7A, 7C, 18C. The procedure:
Cells were washed twice with ice-cold PBS and were lysed in CelLytic buffer (Sigma-Aldrich) supplemented with 1% protease inhibitor cocktail (Roche Diagnostics), 1% phosphatase inhibitor cocktail (EMD Millipore) and 1 mM PMSF (CST) on ice. 10-20 μg of cell lysates were separated on precast gels (Bio-Rad) and transferred on nitrocellulose membranes (Bio-Rad). After blocking for an hour in TBS-T with 2% BSA, membranes were probed with the appropriate primary antibodies listed in Table 6. Membranes were incubated with alkaline-phosphatase conjugated secondary antibodies (Invitrogen) and analyzed with Chemi Doc™ MP Imaging System (Bio-Rad). For fractionation experiment Nuclear and Cytoplasmic Extraction Reagent (Thermo Scientific) was used according to manufacturer's instructions.
In general terms: Immunoblotting shows a protein as a band on a membrane.

Data set [2] deals with B-lymphoid leukemia and lymphoma cells. The data set can be described thus: Cell viability assay (Cell Titer Glo 2.0) with GSK3β inhibitors. Format: cell-based, human. Particulars: B-lymphoid vs myeloid and epithelial cells (PDX2, BV173, LAX2 vs THP1, SW620, H82); 3 days. The procedure: Forty thousand patient-derived pre-B ALL cells or twenty thousand leukemia/lymphoma cell lines or ten thousand colon/lung cancer cells were seed in a volume of 80 μl in complete growth medium on 96-well plate. GSK3β3 inhibitors were added at the indicated concentration in a total volume of 100 μl. After treatment for 3 days, Cell Titer Glo 2.0 assays (Promega) were performed according to the manufacturer's instructions. Relative viability was calculated by measuring the luminescence value and normalizing it to baseline values of untreated cells.
Data are shown as mean±s.d. unless stated. Statistical analysis was performed by GraphPad Prism 7 (GraphPad Software Inc.) using unpaired two-tailed t test or log-rank test as indicated in figure legends. Significance was considered at P<0.05. Kaplan-Meier survival analysis was used to estimate OS with GraphPad Prism 7. The investigators were not blinded to allocation during experiments and outcome assessment. Experiments were repeated to ensure reproducibility of the observations.
On the technique in general: In ATP-based viability assays light output follows the ATP content of the culture.

The conditions of data set [3]: cited from earlier work; for Outcome: clinical responses / Outcome: safety: Phase 1 and 2; for safety and tolerability / PK/PD profile in clinical trials: micromolar plasma concentrations (Cmax).

As to `O=C1Nc2cc(Br)ccc2/C1=C1/Nc2ccccc2/C1=N\O` [6-Bromoindirubin-3′-oxime], the “β-catenin accumulation and MYC suppression” value in data set [1] is reported as “induced massive accumulation of β-catenin in parallel with acute suppression of MYC”. Besides, the “selective cell death / drug response” value in data set [2] was “induced cell death at low nanomolar concentrations selectively in B-lymphoid but not myeloid and epithelial cells”.

Turning to `Cn1cc(C2=C(c3coc4ccc(F)cc34)C(=O)NC2=O)c2cc3c(cc21)OCO3` [9-ING-41, Elraglusib], the “β-catenin accumulation and MYC suppression” value in data set [1] is “failure to induce β-catenin accumulation and MYC-suppression”. In data set [3], the “Outcome: clinical responses” value is listed as “No clinical response”; the “Outcome: safety” value was “Phase 1 and 2, favorable safety”; the “safety and tolerability / PK/PD profile in clinical trials” value (“safety and tolerability / PK/PD profile” for short) was “demonstrated safety and tolerability at micromolar plasma concentrations”. Besides, in data set [2], the “selective cell death / drug response” value is “broad non-specific toxicity across all cell types tested”.

For `N#Cc1ccc2[nH]c(O)c(-c3ccc(CN4CCOCC4)cn3)c2c1` [AZD1080], the “safety and tolerability / PK/PD profile” value in data set [3] is “demonstrated safety and tolerability at micromolar plasma concentrations”.

Consider `O=c1sn(-c2cccc3ccccc23)c(=O)n1Cc1ccccc1` [Tideglusib], for which the “β-catenin accumulation and MYC suppression” value in data set [1] was “failure to induce β-catenin accumulation and MYC-suppression”. Further, in data set [3], the “Outcome: clinical responses” value is “No clinical responses”; the “Outcome: safety” value is “Phase 1 and 2, favorable safety”; the “safety and tolerability / PK/PD profile” value was “demonstrated safety and tolerability at micromolar plasma concentrations”. In data set [3] (i.v.), the “Outcome: MTD” value was 120 mg. Further, in data set [2], the “selective cell death / drug response” value was “no significant activity in any cell type”.

Take CHIR98014: the “β-catenin accumulation and MYC suppression” value in data set [1] is “induced massive accumulation of β-catenin in parallel with acute suppression of MYC”. Further, the “selective cell death / drug response” value in data set [2] was “induced cell death at low nanomolar concentrations selectively in B-lymphoid but not myeloid and epithelial cells”.
